Laboratory results published in the kinase profiling compilation of Christmann-Franck et al. (2016).

Key:
Assay in all cases: radiometric filter-binding kinase assay
NEK6 (human) = NEK6 (human) (UniProt Q9HC98)
BTK (human) = BTK (human) (UniProt Q06187)
MST4 (human) = MST4 (human) (UniProt Q9P289)
ROCK2 (rat) = details: accession and sequence are those of the human protein
IKBKE (human) = IKBKE (human) (UniProt Q14164)
HIPK2 (human) = HIPK2 (human) (UniProt Q9H2X6)
EPHB3 (human) = EPHB3 (human) (UniProt P54753)
MARK3 (human) = MARK3 (human) (UniProt P27448)
Sequence of MARK3 (human) (P27448 whole entry, looked up): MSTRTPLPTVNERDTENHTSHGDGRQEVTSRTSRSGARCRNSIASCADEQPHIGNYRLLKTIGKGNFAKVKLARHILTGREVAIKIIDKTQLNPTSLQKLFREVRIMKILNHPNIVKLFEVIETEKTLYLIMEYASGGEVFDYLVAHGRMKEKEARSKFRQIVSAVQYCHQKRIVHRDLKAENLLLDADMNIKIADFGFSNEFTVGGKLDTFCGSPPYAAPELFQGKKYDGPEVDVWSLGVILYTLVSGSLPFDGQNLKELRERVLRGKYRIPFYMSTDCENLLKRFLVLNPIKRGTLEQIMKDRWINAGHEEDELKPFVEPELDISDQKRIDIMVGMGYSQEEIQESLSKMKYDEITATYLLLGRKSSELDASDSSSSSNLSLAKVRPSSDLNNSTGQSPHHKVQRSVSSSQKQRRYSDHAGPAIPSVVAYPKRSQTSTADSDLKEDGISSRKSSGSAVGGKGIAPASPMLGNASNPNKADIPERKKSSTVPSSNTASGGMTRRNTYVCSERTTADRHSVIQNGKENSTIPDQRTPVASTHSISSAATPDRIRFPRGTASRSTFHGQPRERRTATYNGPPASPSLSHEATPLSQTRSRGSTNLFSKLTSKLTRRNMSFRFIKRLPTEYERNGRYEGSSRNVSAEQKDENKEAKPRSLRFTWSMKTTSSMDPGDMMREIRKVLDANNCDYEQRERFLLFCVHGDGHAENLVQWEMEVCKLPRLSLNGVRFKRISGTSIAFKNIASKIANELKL

PAK6 (human) = PAK6 (human) (UniProt Q9NQU5)
EEF2K (human) = EEF2K (human) (UniProt O00418)
Sequence of EEF2K (human) (O00418 whole entry, looked up): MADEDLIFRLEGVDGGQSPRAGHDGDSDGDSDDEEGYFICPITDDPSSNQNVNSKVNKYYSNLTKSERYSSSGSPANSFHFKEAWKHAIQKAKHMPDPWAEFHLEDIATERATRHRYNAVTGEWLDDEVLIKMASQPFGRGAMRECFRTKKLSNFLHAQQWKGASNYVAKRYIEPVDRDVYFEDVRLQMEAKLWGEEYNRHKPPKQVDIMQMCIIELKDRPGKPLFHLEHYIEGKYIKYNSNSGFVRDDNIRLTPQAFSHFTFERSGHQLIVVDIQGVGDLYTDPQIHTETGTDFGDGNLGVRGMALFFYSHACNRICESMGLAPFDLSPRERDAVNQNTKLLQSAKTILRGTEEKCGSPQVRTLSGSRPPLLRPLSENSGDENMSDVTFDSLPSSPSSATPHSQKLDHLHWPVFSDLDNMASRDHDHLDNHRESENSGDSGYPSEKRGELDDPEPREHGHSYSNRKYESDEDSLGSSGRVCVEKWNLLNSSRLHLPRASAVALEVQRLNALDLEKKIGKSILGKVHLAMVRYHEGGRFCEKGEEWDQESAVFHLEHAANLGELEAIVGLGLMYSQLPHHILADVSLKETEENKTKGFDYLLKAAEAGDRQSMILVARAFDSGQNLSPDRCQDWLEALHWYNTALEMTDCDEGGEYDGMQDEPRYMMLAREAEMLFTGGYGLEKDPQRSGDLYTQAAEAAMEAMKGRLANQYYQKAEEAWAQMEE

PAK7 (human) = PAK7 (human) (UniProt Q9P286)
DYRK2 (human) = DYRK2 (human) (UniProt Q92630)
RPS6KA5 KD1 KD2 (human) = RPS6KA5 KD1 KD2 (human) (UniProt O75582)
CaMK1 (human) = CaMK1 (human) (UniProt Q14012)
LCK (mouse) = details: accession and sequence are those of the human protein
PAK4 (human) = PAK4 (human) (UniProt O96013)
MAPK14 (human) = MAPK14 (human) (UniProt Q16539)
Sequence of MAPK14 (human) (Q16539 whole entry, looked up): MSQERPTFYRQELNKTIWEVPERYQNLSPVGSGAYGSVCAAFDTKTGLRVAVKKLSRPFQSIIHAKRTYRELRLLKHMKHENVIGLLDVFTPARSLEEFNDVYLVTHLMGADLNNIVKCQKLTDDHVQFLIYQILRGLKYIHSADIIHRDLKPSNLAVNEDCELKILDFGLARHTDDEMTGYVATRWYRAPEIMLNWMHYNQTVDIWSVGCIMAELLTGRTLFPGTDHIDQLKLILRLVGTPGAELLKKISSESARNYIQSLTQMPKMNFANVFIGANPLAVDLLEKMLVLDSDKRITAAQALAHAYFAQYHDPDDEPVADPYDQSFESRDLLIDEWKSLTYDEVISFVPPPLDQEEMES

CSNK2A1 (human) = CSNK2A1 (human) (UniProt P68400)
Sequence of CSNK2A1 (human) (P68400 whole entry, looked up): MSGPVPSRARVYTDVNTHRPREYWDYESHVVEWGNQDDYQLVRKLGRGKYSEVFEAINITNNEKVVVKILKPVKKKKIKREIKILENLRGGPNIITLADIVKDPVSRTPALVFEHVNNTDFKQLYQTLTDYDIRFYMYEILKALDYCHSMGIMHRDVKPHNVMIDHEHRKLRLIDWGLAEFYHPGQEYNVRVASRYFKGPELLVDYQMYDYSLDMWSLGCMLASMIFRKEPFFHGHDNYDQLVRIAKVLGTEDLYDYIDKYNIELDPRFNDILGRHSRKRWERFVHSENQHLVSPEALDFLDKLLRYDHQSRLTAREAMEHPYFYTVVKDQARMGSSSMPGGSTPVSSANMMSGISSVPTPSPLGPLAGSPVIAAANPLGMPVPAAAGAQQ

MAPK13 (human) = MAPK13 (human) (UniProt O15264)
Sequence of MAPK13 (human) (O15264 whole entry, looked up): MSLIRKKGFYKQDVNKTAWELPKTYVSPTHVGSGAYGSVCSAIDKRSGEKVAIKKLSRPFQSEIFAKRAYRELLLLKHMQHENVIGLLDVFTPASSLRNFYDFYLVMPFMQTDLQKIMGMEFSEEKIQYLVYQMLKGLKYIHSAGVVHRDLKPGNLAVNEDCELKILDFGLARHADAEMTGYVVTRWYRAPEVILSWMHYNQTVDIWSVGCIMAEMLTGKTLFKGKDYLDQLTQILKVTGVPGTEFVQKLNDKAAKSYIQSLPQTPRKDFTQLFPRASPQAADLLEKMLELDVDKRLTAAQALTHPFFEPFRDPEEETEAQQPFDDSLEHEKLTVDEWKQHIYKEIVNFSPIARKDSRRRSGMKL

MAPKAPK5 (human) = MAPKAPK5 (human) (UniProt Q8IW41)
Sequence of MAPKAPK5 (human) (Q8IW41 whole entry, looked up): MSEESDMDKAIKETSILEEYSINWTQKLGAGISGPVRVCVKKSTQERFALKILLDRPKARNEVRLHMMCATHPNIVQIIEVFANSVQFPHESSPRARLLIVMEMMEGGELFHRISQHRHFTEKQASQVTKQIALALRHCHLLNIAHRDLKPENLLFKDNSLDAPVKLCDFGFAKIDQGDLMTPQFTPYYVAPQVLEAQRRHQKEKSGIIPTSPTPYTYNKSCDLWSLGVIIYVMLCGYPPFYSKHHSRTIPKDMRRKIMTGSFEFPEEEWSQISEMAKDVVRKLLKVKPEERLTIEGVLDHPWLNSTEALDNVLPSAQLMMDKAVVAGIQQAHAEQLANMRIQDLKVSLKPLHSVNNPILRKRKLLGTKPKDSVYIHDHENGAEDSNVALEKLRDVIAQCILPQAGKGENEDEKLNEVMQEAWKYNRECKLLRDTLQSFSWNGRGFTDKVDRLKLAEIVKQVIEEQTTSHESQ

DYRK3 (human) = DYRK3 (human) (UniProt O43781)
DYRK1A (human) = DYRK1A (human) (UniProt Q13627)
PRKCZ (human) = PRKCZ (human) (UniProt Q05513)
EPHA2 (human) = EPHA2 (human) (UniProt P29317)
[1] = test system: AKT1 (human), P31749 [S473D]
MAPK11 (human) = MAPK11 (human) (UniProt Q15759)

Sequence of HIPK2 (human) (Q9H2X6 whole entry, looked up): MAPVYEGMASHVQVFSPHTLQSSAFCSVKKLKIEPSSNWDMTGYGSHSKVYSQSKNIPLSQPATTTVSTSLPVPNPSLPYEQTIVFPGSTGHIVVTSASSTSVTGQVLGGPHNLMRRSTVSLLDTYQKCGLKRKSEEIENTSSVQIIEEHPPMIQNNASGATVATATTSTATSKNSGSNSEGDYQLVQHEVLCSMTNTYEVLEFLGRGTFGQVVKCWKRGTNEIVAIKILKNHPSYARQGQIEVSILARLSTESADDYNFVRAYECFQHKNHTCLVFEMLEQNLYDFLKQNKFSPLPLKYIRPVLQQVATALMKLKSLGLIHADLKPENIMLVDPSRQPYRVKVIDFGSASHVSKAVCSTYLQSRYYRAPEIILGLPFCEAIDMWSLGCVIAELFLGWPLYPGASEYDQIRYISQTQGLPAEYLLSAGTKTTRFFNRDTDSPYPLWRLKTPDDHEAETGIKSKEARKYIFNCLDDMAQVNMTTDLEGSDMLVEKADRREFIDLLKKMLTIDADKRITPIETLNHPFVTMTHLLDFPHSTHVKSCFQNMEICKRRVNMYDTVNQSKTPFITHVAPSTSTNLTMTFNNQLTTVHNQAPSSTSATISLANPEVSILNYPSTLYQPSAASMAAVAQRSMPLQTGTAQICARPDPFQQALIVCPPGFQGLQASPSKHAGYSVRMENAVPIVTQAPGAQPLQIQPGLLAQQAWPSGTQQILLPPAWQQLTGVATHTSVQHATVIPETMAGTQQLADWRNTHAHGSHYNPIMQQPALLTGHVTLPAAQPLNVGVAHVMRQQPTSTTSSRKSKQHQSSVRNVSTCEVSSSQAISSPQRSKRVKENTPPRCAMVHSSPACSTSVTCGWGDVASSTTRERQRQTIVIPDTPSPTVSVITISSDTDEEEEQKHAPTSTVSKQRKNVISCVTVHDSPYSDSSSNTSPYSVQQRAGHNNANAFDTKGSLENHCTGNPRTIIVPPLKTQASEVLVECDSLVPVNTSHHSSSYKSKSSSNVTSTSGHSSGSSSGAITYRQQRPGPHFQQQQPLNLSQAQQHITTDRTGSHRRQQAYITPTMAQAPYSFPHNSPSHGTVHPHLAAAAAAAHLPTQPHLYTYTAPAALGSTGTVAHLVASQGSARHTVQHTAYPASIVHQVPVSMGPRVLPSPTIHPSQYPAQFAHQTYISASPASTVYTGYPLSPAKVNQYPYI
Sequence of NEK6 (human) (Q9HC98 whole entry, looked up): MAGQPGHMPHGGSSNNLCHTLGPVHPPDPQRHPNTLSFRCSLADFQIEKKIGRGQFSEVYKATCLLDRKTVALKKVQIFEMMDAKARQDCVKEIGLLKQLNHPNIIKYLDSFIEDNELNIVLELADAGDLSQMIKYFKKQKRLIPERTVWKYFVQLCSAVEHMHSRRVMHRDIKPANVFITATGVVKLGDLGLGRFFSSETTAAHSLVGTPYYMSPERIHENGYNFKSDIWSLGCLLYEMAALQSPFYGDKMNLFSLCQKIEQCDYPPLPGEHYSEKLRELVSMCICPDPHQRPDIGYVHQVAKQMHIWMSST
Sequence of MST4 (human) (Q9P289 whole entry, looked up): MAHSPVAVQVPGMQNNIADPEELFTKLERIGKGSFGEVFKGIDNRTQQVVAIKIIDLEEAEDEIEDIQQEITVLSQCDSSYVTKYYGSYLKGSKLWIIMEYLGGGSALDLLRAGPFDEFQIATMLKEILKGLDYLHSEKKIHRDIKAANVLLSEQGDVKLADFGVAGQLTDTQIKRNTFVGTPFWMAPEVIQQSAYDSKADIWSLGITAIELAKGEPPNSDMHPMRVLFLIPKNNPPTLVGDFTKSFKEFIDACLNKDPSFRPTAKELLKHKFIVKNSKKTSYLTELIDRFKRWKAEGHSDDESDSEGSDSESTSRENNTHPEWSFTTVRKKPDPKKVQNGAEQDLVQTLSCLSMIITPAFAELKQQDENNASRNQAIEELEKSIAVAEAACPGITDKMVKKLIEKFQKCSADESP

`CCc1cncnc1N1CCN(Cc2nc3cc(C(F)(F)F)ccc3[nH]2)CC1` gave a residual activity (NEK6 (human); compound 0.1 µM) of 88%, a residual activity (NEK6 (human); compound 1.0 µM) of 75% and a residual activity (NEK6 (human); compound 10.0 µM) of 80%. The residual activity (BTK (human); compound 0.1 µM) was 83%, the residual activity (BTK (human); compound 1.0 µM) was 87% and the residual activity (BTK (human); compound 10.0 µM) was 92%. The residual activity (MST4 (human); compound 0.1 µM) was 87%, the residual activity (MST4 (human); compound 1.0 µM) was 77% and the residual activity (MST4 (human); compound 10.0 µM) was 46%. The residual activity (ROCK2 (rat); compound 0.1 µM) was 98%, the residual activity (ROCK2 (rat); compound 1.0 µM) was 91% and the residual activity (ROCK2 (rat); compound 10.0 µM) was 58%. It also gave a residual activity (IKBKE (human); compound 0.1 µM) of 103%, a residual activity (IKBKE (human); compound 1.0 µM) of 99% and a residual activity (IKBKE (human); compound 10.0 µM) of 96%. It also gave a residual activity (HIPK2 (human); compound 0.1 µM) of 108%, a residual activity (HIPK2 (human); compound 1.0 µM) of 86% and a residual activity (HIPK2 (human); compound 10.0 µM) of 88%. For the same compound, the residual activity (EPHB3 (human); compound 0.1 µM) was 132%, the residual activity (EPHB3 (human); compound 1.0 µM) was 139% and the residual activity (EPHB3 (human); compound 10.0 µM) was 101%. For the same compound, the residual activity (MARK3 (human); compound 0.1 µM) was 94%, the residual activity (MARK3 (human); compound 1.0 µM) was 83% and the residual activity (MARK3 (human); compound 10.0 µM) was 82%. The residual activity (PAK6 (human); compound 0.1 µM) was 99%, the residual activity (PAK6 (human); compound 1.0 µM) was 83% and the residual activity (PAK6 (human); compound 10.0 µM) was 86%. For the same compound, the residual activity (EEF2K (human); compound 0.1 µM) was 90%, the residual activity (EEF2K (human); compound 1.0 µM) was 73% and the residual activity (EEF2K (human); compound 10.0 µM) was 78%. It also gave a residual activity (PAK7 (human); compound 1.0 µM) of 88%, a residual activity (PAK7 (human); compound 10.0 µM) of 87% and a residual activity (DYRK2 (human); compound 0.1 µM) of 97%. The residual activity (DYRK2 (human); compound 1.0 µM) was 104%, the residual activity (DYRK2 (human); compound 10.0 µM) was 101% and the residual activity (RPS6KA5 KD1 KD2 (human); compound 0.1 µM) was 80%. The residual activity (RPS6KA5 KD1 KD2 (human); compound 1.0 µM) was 34%, the residual activity (RPS6KA5 KD1 KD2 (human); compound 10.0 µM) was 6% and the residual activity (CaMK1 (human); compound 0.1 µM) was 106%. The residual activity (CaMK1 (human); compound 10.0 µM) was 78%, the residual activity (LCK (mouse); compound 0.1 µM) was 91% and the residual activity (LCK (mouse); compound 1.0 µM) was 92%. For the same compound, the residual activity (LCK (mouse); compound 10.0 µM) was 88%, the residual activity (PAK4 (human); compound 0.1 µM) was 93% and the residual activity (PAK4 (human); compound 1.0 µM) was 88%. For the same compound, the residual activity (PAK4 (human); compound 10.0 µM) was 88%, the residual activity (MAPK14 (human); compound 0.1 µM) was 86% and the residual activity (MAPK14 (human); compound 1.0 µM) was 79%. For the same compound, the residual activity (MAPK14 (human); compound 10.0 µM) was 86%, the residual activity (CSNK2A1 (human); compound 0.1 µM) was 96% and the residual activity (CSNK2A1 (human); compound 1.0 µM) was 92%. The residual activity (CSNK2A1 (human); compound 10.0 µM) was 83%, the residual activity (MAPK13 (human); compound 0.1 µM) was 89% and the residual activity (MAPK13 (human); compound 1.0 µM) was 82%. For the same compound, the residual activity (MAPK13 (human); compound 10.0 µM) was 91%, the residual activity (MAPKAPK5 (human); compound 0.1 µM) was 114% and the residual activity (MAPKAPK5 (human); compound 1.0 µM) was 97%. It also gave a residual activity (MAPKAPK5 (human); compound 10.0 µM) of 87%, a residual activity (DYRK3 (human); compound 0.1 µM) of 106% and a residual activity (DYRK3 (human); compound 1.0 µM) of 92%. The residual activity (DYRK3 (human); compound 10.0 µM) was 83%, the residual activity (DYRK1A (human); compound 0.1 µM) was 99% and the residual activity (DYRK1A (human); compound 1.0 µM) was 94%. For the same compound, the residual activity (DYRK1A (human); compound 10.0 µM) was 85%, the residual activity (PRKCZ (human); compound 0.1 µM) was 78% and the residual activity (PRKCZ (human); compound 1.0 µM) was 75%. For the same compound, the residual activity (PRKCZ (human); compound 10.0 µM) was 70%, the residual activity (EPHA2 (human); compound 0.1 µM) was 95% and the residual activity (EPHA2 (human); compound 1.0 µM) was 86%. For the same compound, the residual activity (EPHA2 (human); compound 10.0 µM) was 89%, the residual activity ([1]; compound 0.1 µM) was 87% and the residual activity ([1]; compound 1.0 µM) was 69%. The residual activity ([1]; compound 10.0 µM) was 52%, the residual activity (MAPK11 (human); compound 0.1 µM) was 88% and the residual activity (MAPK11 (human); compound 1.0 µM) was 89%. The residual activity (MAPK11 (human); compound 10.0 µM) was 97%.
